Assay results from patent publication US20240002388A1, “PYRIMIDINONE COMPOUNDS AND USES THEREOF” (HUTCHISON MEDIPHARMA LIMITED, priority 2020, published 2024).

What follows are molecules tested against RIPK1 recombination protein (Homo sapiens (Human), UniProt Q13546) (assay: RIPK1 kinase activity assay (ADP-Glo)). Conditions: RIPK1 kinase activity, ADP-Glo, 10 μM ATP.
Format: biochemical
In short: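 GST-purified recombinant human RIPK1 (40 nM final) with 10 μM ATP in NaCl/MgCl2/BSA/CHAPS/DTT kinase buffer, 3 h at room temperature; compounds at 10 to 0.005 μM (3-fold). ADP formed measured by ADP-Glo luminescence; inhibition normalized to no-enzyme and no-inhibitor controls, IC50 by curve fit.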

RIPK1 recombination protein, sequence (Q13546 other isoform, or with tags, fused parts or gaps): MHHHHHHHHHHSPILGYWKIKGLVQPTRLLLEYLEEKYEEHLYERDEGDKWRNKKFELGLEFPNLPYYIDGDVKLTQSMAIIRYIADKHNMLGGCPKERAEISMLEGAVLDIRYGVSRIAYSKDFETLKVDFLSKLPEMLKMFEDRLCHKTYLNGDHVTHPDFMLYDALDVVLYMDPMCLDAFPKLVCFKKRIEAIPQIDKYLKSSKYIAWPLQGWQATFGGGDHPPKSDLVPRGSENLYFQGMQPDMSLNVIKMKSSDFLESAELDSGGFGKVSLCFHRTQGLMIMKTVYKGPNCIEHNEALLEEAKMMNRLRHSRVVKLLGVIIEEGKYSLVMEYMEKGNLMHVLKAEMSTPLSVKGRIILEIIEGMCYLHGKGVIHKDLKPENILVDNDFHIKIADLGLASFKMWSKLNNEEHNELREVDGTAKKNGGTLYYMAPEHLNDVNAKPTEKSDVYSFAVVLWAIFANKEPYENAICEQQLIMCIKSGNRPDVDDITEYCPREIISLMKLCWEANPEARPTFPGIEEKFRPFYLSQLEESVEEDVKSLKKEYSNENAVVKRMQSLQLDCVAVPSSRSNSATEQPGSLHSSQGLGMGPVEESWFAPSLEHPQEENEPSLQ

**Q.** For `CC(C)n1ncc2cnc(C(=O)NC3(c4ccc(-c5cncn(C6(C)CC6)c5=O)cc4)CC3)nc21` [Compound 78], which IC50 is on record?
**A.** The IC50 was 33 nM.

**Q.** With `CC(C)n1ncc2cnc(C(=O)NC3(c4ccc(-c5cncn(C6(C)CCC6)c5=O)cc4)CC3)nc21` [Compound 79] as the molecule, how does the IC50 read?
**A.** The IC50 was 21 nM.

**Q.** With `CC(C)n1ncc2cnc(C(=O)NC3(c4ccc(-c5cncn([C@H](C)C6CC6)c5=O)cc4)CC3)nc21` [Compound 84, (R)—N-(1-(4-(1-(1-cyclopropylethyl)-6-oxo-1,6-dihydropyrimidin-5-yl)phenyl)cyclopropyl)-1-i-propyl-1H-pyrazolo[3,4-d]pyrimidine-6-carboxamide] as the molecule, how does the IC50 read?
**A.** The IC50 was 45 nM.

**Q.** For `CC(C)n1ncc2cnc(C(=O)NC3(c4ccc(-c5cncn([C@@H](C)C6CC6)c5=O)cc4)CC3)nc21` [Compound 85, (S)—N-(1-(4-(1-(1-cyclopropylethyl)-6-oxo-1,6-dihydropyrimidin-5-yl)phenyl)cyclopropyl)-1-i-propyl-1H-pyrazolo[3,4-d]pyrimidine-6-carboxamide], which IC50 is on record?
**A.** The IC50 was 30 nM.

**Q.** `CC(C)n1ncc2cnc(C(=O)NC3(c4ccc(-c5cncn(CC6(C)CC6)c5=O)cc4)CC3)nc21` [Compound 86] was tested. Which IC50 did it give?
**A.** Its IC50 is 14 nM.

**Q.** For `CC(C)n1ncc2cnc(C(=O)NC3(c4ccc(-c5cncn([C@H]6C[C@H](F)C6)c5=O)cc4)CC3)nc21` [Compound 87, N-(1-(4-(1-(trans-3-fluorocyclobutyl)-6-oxo-1,6-dihydropyrimidin-5-yl)phenyl)cyclopropyl)-1-i-propyl-1H-pyrazolo[3,4-d]pyrimidine-6-carboxamide], which IC50 is on record?
**A.** The IC50 was 41 nM.

**Q.** Which IC50 does the source give for `CC(C)n1ncc2cnc(C(=O)NC3(c4ccc(-c5cncn([C@H]6C[C@@H](F)C6)c5=O)cc4)CC3)nc21` [Compound 88, N-(1-(4-(1-(cis-3-fluorocyclobutyl)-6-oxo-1,6-dihydropyrimidin-5-yl)phenyl)cyclopropyl)-1-i-propyl-1H-pyrazolo[3,4-d]pyrimidine-6-carboxamide] here?
**A.** Its IC50 is 41 nM.

**Q.** For `CC(C)n1cncc(-c2ccc(C3(NC(=O)c4ncc5cnn([C@H](C)C6CC6)c5n4)CC3)cc2)c1=O` [Compound 89, (R)-1-(1-cyclopropylethyl)-N-(1-(4-(1-i-propyl-6-oxo-1,6-dihydropyrimidin-5-yl)phenyl)cyclopropyl)-1H-pyrazolo[3,4-d]pyrimidine-6-carboxamide], which IC50 is on record?
**A.** The IC50 was 48 nM.

**Q.** How did the IC50 turn out when `CC(C)n1cncc(-c2ccc(C3(NC(=O)c4ncc5cnn([C@@H](C)C6CC6)c5n4)CC3)cc2)c1=O` [Compound 90, (S)-1-(1-cyclopropylethyl)-N-(1-(4-(1-i-propyl-6-oxo-1,6-dihydropyrimidin-5-yl)phenyl)cyclopropyl)-1H-pyrazolo[3,4-d]pyrimidine-6-carboxamide] was run?
**A.** The IC50 was 54 nM.

**Q.** How did the IC50 turn out when `CC(C)n1cncc(-c2ccc(C3(NC(=O)c4ncc5cnn(C(C)C)c5n4)CC3)c(F)c2Cl)c1=O` [Compound 91] was run?
**A.** The IC50 was 72 nM.

**Q.** With `CC(C)n1cncc(-c2cc(F)c(C3(NC(=O)c4ncc5cnn(C(C)C)c5n4)CC3)c(F)c2)c1=O` [Compound 92] as the molecule, how does the IC50 read?
**A.** The IC50 was 104 nM.

**Q.** For `CC(C)n1cncc(-c2ccc(C3(NC(=O)c4ncc5cnn(C(C)C)c5n4)CC3)c(F)c2F)c1=O` [Compound 93], which IC50 is on record?
**A.** The IC50 was 35 nM.

**Q.** `CC(C)n1ncc2cnc(C(=O)NC3(c4cc(F)c(-c5cncn(CC6CC6)c5=O)cc4F)CC3)nc21` [Compound 94] was tested. Which IC50 did it give?
**A.** The IC50 was 27 nM.

**Q.** Which IC50 does the source give for `CC(C)n1ncc2cnc(C(=O)NC3(c4ccc(-c5cncn(CC6CC6)c5=O)c(F)c4F)CC3)nc21` [Compound 95] here?
**A.** Its IC50 is 28 nM.
